Like-named read-outs stand apart in the source and are kept apart here. Where only a bound is given, the exact number is not on record here.

For one assay, the system named is HIV-1. The experiment in a line: Antiviral EC50 in HIV-infected T-cell lines (CPE inhibition / susceptibility assays). Format: cell-based. As to the method:
T-cell lines, CEM-SS, and MT-2, and viruses HIV-1 RF and HIV-1 NL4-3 (pNL4-3) were obtained from the National Institutes of Health (AIDS Research and Reference Reagent Program, Bethesda, MD).
The ability of compounds to protect cells against HIV infection was measured by the […] dye reduction method, essentially as described (See Pauwels, R. Balzarini, J. Baba, M. Snoeck, R. Schols, D. Herdewijn, P. Desmyter, J. and De Clercq, E. 1988, “Rapid and automated tetrazolium-based colorimetric assay for the detection of anti-HIV compounds,”. J Virol. Methods., 20: 309-321 and Weislow, O. S. Kiser, R. Fine, D. L. Bader, J. Shoemaker, R. H. and Boyd, M. R. 1989. “New soluble-formazan assay for HIV-1 cytopathic effects: application to high-flux screening of synthetic and natural products for AIDS-antiviral activity”. J. Natl. Cancer Inst. 81:577-586). Subject cells were infected with test virus at an moi of 0.025 to 0.819 or mock infected with medium only and added at 2×10^4 cells per well into 96 well plates containing half-log dilutions of test compounds. Six days later, 50 μl of XTT (1 mg/ml XTT tetrazolium, […] phenazine methosulfate) was added to the wells and the plate was reincubated for four hours. Viability, as determined by the amount of XTT formazan produced, was quantified spectrophotometrically by absorbance at 450 nm. Data from CPE assays were expressed as the percent of formazan produced in compound-treated cells compared to formazan produced in wells of uninfected, compound-free cells. The fifty percent effective concentration (EC50) was calculated as the concentration of compound that effected an increase in the percentage of formazan production in infected, compound-treated cells to 50% of that produced by uninfected, compound-free cells. The 50% cytotoxicity concentration (CC50) was calculated as the concentration of compound that decreased the percentage of formazan produced in uninfected, compound-treated cells to 50% of that produced in uninfected, compound-free cells. The therapeutic index was calculated by dividing the cytotoxicity (CC50) by the antiviral activity (EC50).
Compounds were tested in phenotypic susceptibility assays at Virologic, Inc., (See Petropoulos C. J., Parkin N. T., Limoli K. L., Lie Y. S., Wrin T., Huang W., Tian H., Smith D., Winslow G. A., Capon D J, Whitcomb J M. 2000, “A novel phenotypic drug susceptibility assay for human immunodeficiency virus type 1,” Antimicrob Agents Chemother 44(4):920-928) or using the assay described here. MT-2 cells were infected with either HIV-1 NL4-3 or HIV-1 NL4-3(I84V/L90M) and incubated in the presence of serial 0.5 log dilutions of test compounds. Three days later, culture supernatants were collected and virus production, as determined by p24 ELISA, was assayed. Percent inhibition was calculated as p24 concentration in compound-treated samples as compared to infected, compound-free controls. Inhibition of viral replication is determined by measuring reduction in HIV p24 present in the culture supernatant, using a Beckman-Coulter p24 HIV-1 Ag EIA kit and following the supplied protocol. Absorbance is read on a MRX microplate reader (Dynex Technologies). The EC50 was calculated as the concentration of compound that effected a decrease in the p24 production by infected, compound-treated cells to 50% of that produced by infected, compound-free cells.

A further assay concerns the target T1, HIV-1 protease (Human immunodeficiency virus type 1 group M subtype B, UniProt P04585, Q495S).
T1 construct: made in house
The experiment in a line: HIV-1 Protease RET assay (Ki, resonance energy transfer). The class given is biochemical. Particulars: Q7S mutant HIV-1 protease. As to the method:
Ki's for the inhibitors of HIV-1 protease were determined using a resonance energy transfer (RET) assay. […] This enzyme is first partially purified as inclusion bodies from cell lysate. It is then solublized in 8M urea and passed through a Q-Sepharose column (Pharmacia) for further purification. To refold this protein, samples containing Q7S is dialyzed into 50 mM sodium phosphate pH 7.0, 50 mM NaCl, 10 mM DTT, and 10% glycerol.
The commercially available peptide substrate (Molecular Probes Cat. # H-2930) RE(EDANS)SQNYPIVQK(DABCYL)R is used to assess activity and Ki's. This peptide is cleaved quantitatively by HIV-1 Pr at the Tyr-Pro bond. The EDANS fluorophore absorbs at 340 nm and emits at 490 nm. The reaction is carried out in a 96 well plate in a total volume of 100 µL and is run for 12 minutes at 37C under steady-state conditions with 5 µM substrate and 2 nM active dimer enzyme concentration. The literature value Km for this substrate and enzyme is 103+/−8 μM (See Matayoshi, et al., “Novel Fluorogenic Substrates for Assaying Retroviral Proteases by Resonance Energy Transfer,” Science 247, 954 (1990)). The buffer for this reaction is 0.1M sodium acetate pH 4.8, 1M NaCl, 1 mM EDTA, 5 mM dithiothreitol, 10% dimethyl sulfoxide and 1 mg/ml bovine serum albumin. Inhibition curves are fit using the Morrison tight binding equation.

[1] abbreviates: Human immunodeficiency virus 1, T-cell, read-out: Ave. EC50, average, unit inferred.
[2] abbreviates: Human immunodeficiency virus 1, T-cell, read-out: EC50 (wt) (nm), wt virus.

In general, EC50 refers to the concentration at which the effect is half-maximal. The Ki is a dissociation constant, usually derived from enzyme kinetics or from competition with a known ligand. For the molecule `C=CCNC(=O)[C@H]1N(C(=O)[C@@H](O)[C@H](Cc2ccccc2)NC(=O)c2cc(C)cc(O)c2C)CSC1(C)C` [Example D12, (R)-3-[(2S,3S)-2-Hydroxy-3-(3-hydroxy-2,5-dimethyl-benzoylamino)-4-phenyl-butyryl]-5,5-dimethyl-thiazolidine-4-carboxylic acid allylamide], the EC50 in the assay on HIV-1 (setting [1]) was determined as 16 nM. For the same molecule, the Ki on HIV-1 protease (average, read-out: Ave. Ki) was 0.7 nM.
As to `CCCNC(=O)[C@H]1N(C(=O)[C@@H](O)[C@H](Cc2cccc(F)c2)NC(=O)c2cc(C)cc(O)c2C)CC(F)(F)C1(C)C`, the EC50 in the assay on HIV-1 (setting [2]) is 14 nM. The Ki at HIV-1 protease (read-out: Ki (nm)) was under 0.1 nM.
For `Cc1c(O)cccc1C(=O)N[C@@H](Cc1ccccc1)[C@H](O)C(=O)N1CC(F)(F)C(C)(C)[C@H]1C(=O)NCC(C)(C)C` the same measures were 4.7 nM and under 0.1 nM.
In the case of `Cc1cc(O)c(C)c(C(=O)N[C@@H](Cc2cccc(F)c2)[C@H](O)C(=O)N2CC(F)(F)C(C)(C)[C@H]2C(=O)NCc2ccccc2F)c1`, the EC50 with HIV-1 (setting [2]) stood at 6.7 nM. Also, the Ki on HIV-1 protease (read-out: Ki (nm)) is under 0.1 nM.
In the case of `Cc1cc(O)c(C)c(C(=O)N[C@@H](Cc2cccc(F)c2)[C@H](O)C(=O)N2CC(F)(F)C(C)(C)[C@H]2C(=O)NCC(F)(F)F)c1`, the EC50 with HIV-1 (setting [2]) is 14 nM. For the same molecule, the Ki on HIV-1 protease (read-out: Ki (nm)) is under 0.1 nM.
As to `Cc1c(O)cccc1C(=O)N[C@@H](Cc1cccc(F)c1)[C@H](O)C(=O)N1CC(F)(F)C(C)(C)[C@H]1C(=O)NCC(C)(C)C` [drawing 137], the EC50 in the assay with HIV-1 (read-out: EC50 (wt) (nm), wt virus) is 8.8 nM. At HIV-1 protease (read-out: Ki (nm)), the Ki is under 0.1 nM.
In the case of `Cc1c(O)cccc1C(=O)N[C@@H](Cc1ccccc1)[C@H](O)C(=O)N1COC(C)(C)[C@H]1C(=O)NC1CCc2ccccc21` (stereo partly shown), the EC50 in the assay on HIV-1 (setting [2]) stood at 33 nM. The Ki on HIV-1 protease (read-out: Ki (nm)) is under 0.1 nM.
For `Cc1cc(O)c(C)c(C(=O)N[C@@H](Cc2ccccc2)[C@H](O)C(=O)N2CC(C)(O)C(C)(C)[C@H]2C(=O)NCc2ccccc2C)c1` (stereo partly shown) the same measures were 12 nM and under 0.1 nM.
For `Cc1c(O)cccc1C(=O)N[C@@H](Cc1cccc(F)c1)[C@H](O)C(=O)N1CC(F)(F)C(C)(C)[C@H]1C(=O)NCC(C)(C)C` [drawing 136] the same measures were 13 nM and under 0.1 nM.
As to `C=CCNC(=O)C1N(C(=O)[C@@H](O)[C@H](Cc2cccc(F)c2)NC(=O)c2cccc(O)c2C)CC(F)(F)C1(C)C` (stereo partly drawn) [Example D10, (R)-3-((2S,3R)-4,4-Difluoro-1-[4-(3-fluoro-phenyl)-2-hydroxy-3-(3-hydroxy-2-methyl-benzoylamino)-butyryl])-3,3-dimethyl-pyrrolidine-2-carboxylic acid allylamide], the EC50 in the assay on HIV-1 (setting [1]) was determined as 16 nM. The Ki on HIV-1 protease (average, read-out: Ave. Ki) is under 0.1 nM.
Turning to `Cc1cc(O)c(C)c(C(=O)N[C@@H](Cc2ccccc2)[C@H](O)C(=O)N2CC(F)(F)C(C)(C)[C@H]2C(=O)NCc2ccncc2)c1`, in the assay on HIV-1 (setting [2]), the EC50 amounted to 110 nM. At HIV-1 protease (read-out: Ki (nm)), the Ki came out at 0.26 nM.
The like results for `Cc1ccc(O)c(C)c1C(=O)N[C@@H](Cc1ccccc1)[C@H](O)C(=O)N1CC(F)(F)C(C)(C)[C@H]1C(=O)NCC(C)C` were, in that order, 44 nM and under 0.1 nM.
Consider `Cc1ccccc1CNC(=O)[C@H]1N(C(=O)[C@@H](O)[C@H](Cc2cccc(F)c2)NC(=O)c2cccc(O)c2C)CC(F)(F)C1(C)C`, for which the EC50 in the assay with HIV-1 (setting [2]) worked out at 17 nM. The Ki at HIV-1 protease (read-out: Ki (nm)) was under 0.1 nM.
For `CC(C)CNC(=O)[C@H]1N(C(=O)[C@@H](O)[C@H](Cc2ccccc2)NC(=O)c2cccc3c2CCN3)CC(F)(F)C1(C)C` the same measures were 35 nM and under 0.1 nM.
The like results for `Cc1c(O)cccc1C(=O)N[C@@H](Cc1ccccc1)[C@H](O)C(=O)N1CC(F)(F)C(C)(C)[C@H]1C(=O)NCc1ccccc1F` were, in that order, 16 nM and under 0.1 nM.
With `CCCNC(=O)[C@H]1N(C(=O)[C@@H](O)[C@H](Cc2ccccc2)NC(=O)c2c(C)ccc(O)c2C)CC(F)(F)C1(C)C`, the EC50 in the assay on HIV-1 (setting [2]) came to 33 nM. Moreover, the Ki on HIV-1 protease (read-out: Ki (nm)) is under 0.1 nM.
With `CCCCNC(=O)[C@H]1N(C(=O)[C@@H](O)[C@H](Cc2cccc(F)c2)NC(=O)c2cccc(O)c2C)CC(F)(F)C1(C)C`, in the assay on HIV-1 (setting [2]), the EC50 is 32 nM. Besides, at HIV-1 protease (read-out: Ki (nm)), the Ki was under 0.1 nM.
For the molecule `CC[C@H](C)CNC(=O)[C@H]1N(C(=O)[C@@H](O)[C@H](Cc2ccccc2)NC(=O)c2cc(C)cc(O)c2C)CC(F)(F)C1(C)C`, the EC50 in the assay with HIV-1 (setting [2]) came out at 7.5 nM. Moreover, the Ki on HIV-1 protease (read-out: Ki (nm)) was under 0.1 nM.
The like results for `COC1CN(C(=O)[C@@H](O)[C@H](Cc2ccccc2)NC(=O)c2cccc(O)c2C)[C@H](C(=O)NCc2ccccc2F)C1(C)C` (stereo partly shown) were, in that order, 1000 nM and 0.34 nM.
For `CCNC(=O)[C@H]1N(C(=O)[C@@H](O)[C@H](Cc2ccccc2)NC(=O)c2c(C)ccc(O)c2C)CC(F)(F)C1(C)C` the same measures were 35 nM and under 0.1 nM.
For `CCCNC(=O)C1N(C(=O)[C@@H](O)[C@H](Cc2ccccc2)NC(=O)c2cc(C)cc(O)c2C)CC(F)(F)C1(C)C` (stereo partly shown) the same measures were 9 nM and under 0.1 nM.
Turning to `C=CCNC(=O)[C@H]1N(C(=O)[C@@H](O)[C@H](Cc2cccc(F)c2)NC(=O)c2cc(C)cc(O)c2C)CC(F)(F)C1(C)C`, in the assay with HIV-1 (setting [2]), the EC50 is 25 nM. Also, the Ki on HIV-1 protease (read-out: Ki (nm)) was under 0.1 nM.
For `Cc1cc(O)c(C)c(C(=O)N[C@@H](Cc2cccc(F)c2)[C@H](O)C(=O)N2CC(F)(F)C(C)(C)C2C(=O)NCC(C)C)c1` (stereo partly shown) the same measures were 11 nM and under 0.1 nM.
For `CCCCNC(=O)[C@H]1N(C(=O)[C@@H](O)[C@H](Cc2ccccc2)NC(=O)c2cc(C)cc(O)c2C)CC(F)(F)C1(C)C` the same measures were 23 nM and under 0.1 nM.
The like results for `CC(C)CNC(=O)[C@H]1N(C(=O)[C@@H](O)[C@H](Cc2cccc(F)c2)NC(=O)c2cccc3c2CCN3)CC(F)(F)C1(C)C` were, in that order, 42 nM and under 0.1 nM.
For `Cc1c(O)cccc1C(=O)N[C@@H](Cc1ccccc1)[C@H](O)C(=O)N1CC(F)(F)C(C)(C)[C@H]1C(=O)NCc1ccncc1`, the EC50 in the assay with HIV-1 (setting [2]) worked out at 130 nM. Also, the Ki on HIV-1 protease (read-out: Ki (nm)) is under 0.1 nM.
Turning to `C=CCNC(=O)[C@H]1N(C(=O)[C@@H](O)[C@H](Cc2cccc(F)c2)NC(=O)c2cccc3c2CCN3)CC(F)(F)C1(C)C`, the EC50 in the assay on HIV-1 (setting [2]) is 35 nM. In addition, the Ki on HIV-1 protease (read-out: Ki (nm)) is under 0.1 nM.
`Cc1cc(O)c(C)c(C(=O)N[C@@H](Cc2ccccc2)[C@H](O)C(=O)N2CC(F)(F)C(C)(C)[C@H]2C(=O)NCC(F)(F)F)c1` [drawing 119]: in the assay with HIV-1 (setting [2]), the 50% effective concentration (EC50) was 18 nM. Also, on HIV-1 protease (read-out: Ki (nm)), the Ki was under 0.1 nM.
As for `COC[C@H](C)NC(=O)[C@H]1N(C(=O)[C@@H](O)[C@H](Cc2cccc(F)c2)NC(=O)c2cccc(O)c2C)CC(F)(F)C1(C)C`, in the assay with HIV-1 (setting [2]), the EC50 was determined as 100 nM. Also, the Ki at HIV-1 protease (read-out: Ki (nm)) was under 0.1 nM.

Values taken from patent publication US20050124683A1, “HIV protease inhibitors, compositions containing the same, their pharmaceutical uses and materials for their synthesis” (priority 2003, published 2005).
